Consider 2 compounds from article PMC8518382, “Identification of a Bromodomain‐like Region in 15‐Lipoxygenase‐1 Explains Its Nuclear Localization” (Angewandte Chemie (International Ed. in English), 2021).

By IC50 is commonly meant the concentration needed to halve the response being measured. A higher IC50 goes with weaker potency in that assay.

In one experiment the target is T1, 5-LOX (Homo sapiens, UniProt P09917).
T1 construct: the endogenous LOXs were captured on an anti‐LOX antibody precoated 96‐well plate; endogenous in cells; host or cells: A549 cell lysate
T1 sequence (P09917 1-674): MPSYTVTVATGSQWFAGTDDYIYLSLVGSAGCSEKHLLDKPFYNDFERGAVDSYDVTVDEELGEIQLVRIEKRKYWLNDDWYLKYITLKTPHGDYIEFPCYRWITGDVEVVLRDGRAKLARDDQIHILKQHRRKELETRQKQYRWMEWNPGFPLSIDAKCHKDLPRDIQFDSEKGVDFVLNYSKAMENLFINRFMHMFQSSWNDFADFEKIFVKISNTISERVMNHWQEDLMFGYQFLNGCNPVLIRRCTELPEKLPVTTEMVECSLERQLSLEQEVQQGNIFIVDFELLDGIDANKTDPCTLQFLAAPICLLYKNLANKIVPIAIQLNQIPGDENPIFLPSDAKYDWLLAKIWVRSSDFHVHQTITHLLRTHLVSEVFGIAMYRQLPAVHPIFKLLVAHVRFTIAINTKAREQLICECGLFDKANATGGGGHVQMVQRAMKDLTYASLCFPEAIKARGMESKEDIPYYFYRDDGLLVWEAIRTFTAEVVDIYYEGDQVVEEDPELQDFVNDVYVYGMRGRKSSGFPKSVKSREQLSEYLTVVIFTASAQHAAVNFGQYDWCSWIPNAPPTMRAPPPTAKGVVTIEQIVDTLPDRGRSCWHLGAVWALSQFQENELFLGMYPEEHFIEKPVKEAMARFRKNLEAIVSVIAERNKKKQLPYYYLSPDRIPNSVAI
The experiment is described as follows: ABP-based ELISA assay with A549 cell lysate, 5-LOX. The format is biochemical. The protocol: (§1) A549 cell lysate was treated with a serial dilution of the respective inhibitor. Subsequently, samples were labeled by treatment with 1 μM of Labelox B for 1 min. […] Data are mean±s.d., n≥3 independent experiments. […]
(§2) 1.6. Immunoblotting Analysis […]
(§3) 1.7. ABPP-based LOX inhibitor specificity validation
(§4) A549 cells were lysed by RIPA buffer supplemented with 1x PIC. After sonication and centrifugation, the supernatant was collected, and the protein concentration was determined by a Pierce BCA Protein Assay Kit (Thermo Fisher Scientific, USA). The lysates were then diluted with PBS to 300 ng/µl and stored in -20°C. To label endogenous LOXs with Labelox B under the competition condition, 180 µl diluted lysates were incubated with 200 µl different LOX inhibitor solution (in PBS) with desired concentrations for 18 min to inhibit LOXs activity. Later, 20 µl of a 20 µM Labelox B (in PBS) was added and incubated shortly for 2 min, followed by adding 50 µl of a 0.5 M EDTA to stop the labeling reaction. The reaction mixture was 450 µl in total. Inhibitors and Labelox B were absent in positive and […]
(§5) negative control, respectively. To detect the competition labeling of Labelox B among different LOXs, a high-binding 96-well plate (Greiner, #M4561) was coated with 5-LOX (#ab169755, Abcam), 12-LOX […]
(§6) (1:500 dilution in PBS) for overnight at 4°C. After washing triply with 0.05%PBST, the plate was blocked with 2% (w/v) BSA in PBST. Subsequently, 100 µl of each reaction mixture was added to the LOX-antibody-coated wells. There are four LOX antibodies used for coating. Therefore, in total, 400 µl mixture is needed for each reaction. After one hour of incubation, LOXs were pulled down by antibodies accordingly. Next, 100 µl of HRP-conjugated streptavidin (1:2000 dilution in PBS, Thermo Fisher Scientific, USA) was added to each well to detect the D04 labeled LOXs among precipitated LOXs. After washing with PBST, 100 µl of mixed HRP substrate reagent (R&D Systems, Minneapolis, USA) was added, and the colorizing reaction was stopped by adding 100 µl of 1M sulfuric acid. The absorbance at […]
(ELISA stands for enzyme-linked immunosorbent assay.)

The target in the next experiment is T2, 12-LOX (Homo sapiens, UniProt P18054).
T2 construct: the endogenous LOXs were captured on an anti‐LOX antibody precoated 96‐well plate; endogenous in cells; host or cells: A549 cell lysate
T2 sequence (P18054 1-663): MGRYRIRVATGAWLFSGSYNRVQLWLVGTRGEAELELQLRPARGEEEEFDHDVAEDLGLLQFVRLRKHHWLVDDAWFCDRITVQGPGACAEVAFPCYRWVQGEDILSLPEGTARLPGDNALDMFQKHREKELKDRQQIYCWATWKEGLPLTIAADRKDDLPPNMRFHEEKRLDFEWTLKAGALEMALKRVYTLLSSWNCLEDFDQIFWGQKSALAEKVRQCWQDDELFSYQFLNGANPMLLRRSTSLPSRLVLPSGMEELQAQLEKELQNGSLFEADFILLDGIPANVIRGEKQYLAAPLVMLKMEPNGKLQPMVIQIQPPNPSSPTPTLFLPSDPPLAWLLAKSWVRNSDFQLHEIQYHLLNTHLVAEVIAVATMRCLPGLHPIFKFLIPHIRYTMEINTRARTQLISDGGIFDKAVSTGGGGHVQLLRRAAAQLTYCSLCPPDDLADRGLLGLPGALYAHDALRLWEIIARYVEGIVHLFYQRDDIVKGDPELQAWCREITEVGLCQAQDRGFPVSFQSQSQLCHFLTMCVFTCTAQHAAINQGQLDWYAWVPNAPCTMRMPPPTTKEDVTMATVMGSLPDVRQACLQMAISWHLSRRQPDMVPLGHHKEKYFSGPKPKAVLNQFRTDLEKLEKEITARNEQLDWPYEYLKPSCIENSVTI
The experiment is described as follows: ABP-based ELISA assay with A549 cell lysate, 12-LOX. The format is biochemical. The protocol: as §1, §2, §3, §4, §5, §6

Where “and” joins values, the source holds several entries; their conditions need not be identical. Equal values may be shown once.

Regarding `O=c1cc(-c2ccccc2)oc2cc(O)c(O)c(O)c12` [Baicalein], the “HillSlope Value” was -0.26 on 5-LOX and -0.41 on 12-LOX.
As for `c1ccc2c(c1)SCc1c-2[nH]c2ccccc12` [PD146176], the “HillSlope Value” is -0.99 on 5-LOX and -0.98 on 12-LOX. Also, the IC50 was ~17 µM and 14.8 µM at 5-LOX (1 μM Labelox B); ~17 µM and 19.1 µM against 12-LOX (1 μM Labelox B).
